pIC50: −log10 of the molar value.
Key:
[1] = molecular target: T1, PDE7 (PDE7A) (Homo sapiens, UniProt Q13946); assay: PDE assay, recombinant human PDE7A; assay type: biochemical; details: substrate about 4.8 nM [3H]-cAMP and 0.1 μM cAMP
T1 construct: His tag (hexahistidine, pcDNA4/HisMax) (N); made in house
Description: (§1) Based on the information of cDNA sequence of human PDE7A (Genbank/EMBL Accession No. NM002603), a cDNA encoding human PDE7A was cloned by PCR method, according to a method described in Sasaki et al. (Sasaki et al., Biochem. Biophys. Res. Commun., vol. 271, pp. 575-583, 2000). Further, based on the information of cDNA sequence of human PDE8A (Genbank/EMBL Accession No. AF388183), a cDNA encoding human PDE8A was cloned by PCR method, according to a method described in Gamanuma et al. (Gamanuma et al., Cell Signal, 2003, vol. 15, pp. 565-574). Further, a cDNA encoding human PDE11A was obtained, according to a method reported in Yuasa et al. (Yuasa et al., J. Biol. Chem., vol. 275, pp. 31469-31479, 2000). Using these cDNAs, recombinant proteins of human PDE7A, human PDE8A, and human PDE11A were prepared as follows.
(§2) DNA fragments comprising a cDNA encoding human PDE7A, human PDE8A or human PDE11A were linked to pcDNA4/HisMax (available from Invitrogen), to give a vector plasmid for expression of human proteins, with a histidine tag peptide (hexahistidine), added to the N-terminus. COS-7 cells were transfected with these vector plasmids, and the cells were cultured in Dulbecco's modified Eagle medium containing 10% bovine fetal serum for about 24 hours. […]

[2] = molecular target: T2, PDE9 (PDE9A) (Homo sapiens, UniProt O76083); assay: PDE assay, recombinant human PDE9A; assay type: biochemical; details: substrate about 12 nM [3H]-cGMP and 0.1 μM cGMP
T2 construct: FLAG (pFLAG-CMV-2) (N); made in house; host or cells: COS-7 cells, 100,000 x g supernatant of the sonicate, not purified
T2 sequence (O76083 whole entry): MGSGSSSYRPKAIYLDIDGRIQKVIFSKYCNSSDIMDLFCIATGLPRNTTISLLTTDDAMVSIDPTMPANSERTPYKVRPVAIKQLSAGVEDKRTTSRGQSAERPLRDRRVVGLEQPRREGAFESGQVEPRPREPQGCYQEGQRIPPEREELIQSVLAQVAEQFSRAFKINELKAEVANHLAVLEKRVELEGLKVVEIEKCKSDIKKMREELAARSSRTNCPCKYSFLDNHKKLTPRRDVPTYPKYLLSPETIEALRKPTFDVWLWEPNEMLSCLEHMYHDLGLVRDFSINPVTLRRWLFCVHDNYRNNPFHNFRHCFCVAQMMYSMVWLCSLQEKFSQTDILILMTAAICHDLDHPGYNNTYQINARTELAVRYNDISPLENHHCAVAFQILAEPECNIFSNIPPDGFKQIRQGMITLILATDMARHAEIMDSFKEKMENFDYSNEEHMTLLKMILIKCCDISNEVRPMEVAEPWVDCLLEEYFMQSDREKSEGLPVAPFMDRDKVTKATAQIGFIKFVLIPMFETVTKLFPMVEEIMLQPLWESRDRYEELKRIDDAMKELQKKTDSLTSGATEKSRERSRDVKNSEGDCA
Method: Based on the information of cDNA sequence of human PDE9A (Genbank/EMBL Accession No. AF048837) (Fisher et al., J. Biol. Chem., 1998, vol. 273, pp. 15559-15564, […]), a cDNA encoding human PDE9A was cloned by PCR method. Using this cDNA, a recombinant protein of human PDE9A was prepared as follows.
A DNA fragment comprising a cDNA encoding human PDE9A was linked to pFLAG-CMV-2 (available from Kodak), to give a vector plasmid for expression of human PDE9A, with a flag tag peptide added to the N-terminus. COS-7 cells were transfected by these vector plasmids, and the cells were cultured in Dulbecco's modified Eagle medium containing 10% bovine fetal serum for about 24 to 48 hours. After incubation, the cells were collected, and washed with Phosphate buffered saline, and re-suspended in a solution buffer (20 mM Tris-HCl, pH7.5, 2 mM magnesium acetate, 0.3 mM calcium chloride, 1 mM dithiothreitol, 1.3 mM benzamidine). The cells were homogenized by ultrasonic treatment, and subjected to centrifugation (100,000×g, 4° C., 1 hour) to collect a supernatant.
This supernatant containing the recombinant human PDE9A was used for PDE assay as a PDE9 (PDE9A) enzyme solution. […]

[3] = molecular target: T3, PDE11 (PDE11A) (Homo sapiens, UniProt Q9HCR9); assay: PDE assay, recombinant human PDE11A; assay type: biochemical; details: substrate about 12 nM [3H]-cGMP and 1 μM cGMP
T3 construct: His tag (hexahistidine, pcDNA4/HisMax) (N); made in house
T3 sequence (Q9HCR9 whole entry): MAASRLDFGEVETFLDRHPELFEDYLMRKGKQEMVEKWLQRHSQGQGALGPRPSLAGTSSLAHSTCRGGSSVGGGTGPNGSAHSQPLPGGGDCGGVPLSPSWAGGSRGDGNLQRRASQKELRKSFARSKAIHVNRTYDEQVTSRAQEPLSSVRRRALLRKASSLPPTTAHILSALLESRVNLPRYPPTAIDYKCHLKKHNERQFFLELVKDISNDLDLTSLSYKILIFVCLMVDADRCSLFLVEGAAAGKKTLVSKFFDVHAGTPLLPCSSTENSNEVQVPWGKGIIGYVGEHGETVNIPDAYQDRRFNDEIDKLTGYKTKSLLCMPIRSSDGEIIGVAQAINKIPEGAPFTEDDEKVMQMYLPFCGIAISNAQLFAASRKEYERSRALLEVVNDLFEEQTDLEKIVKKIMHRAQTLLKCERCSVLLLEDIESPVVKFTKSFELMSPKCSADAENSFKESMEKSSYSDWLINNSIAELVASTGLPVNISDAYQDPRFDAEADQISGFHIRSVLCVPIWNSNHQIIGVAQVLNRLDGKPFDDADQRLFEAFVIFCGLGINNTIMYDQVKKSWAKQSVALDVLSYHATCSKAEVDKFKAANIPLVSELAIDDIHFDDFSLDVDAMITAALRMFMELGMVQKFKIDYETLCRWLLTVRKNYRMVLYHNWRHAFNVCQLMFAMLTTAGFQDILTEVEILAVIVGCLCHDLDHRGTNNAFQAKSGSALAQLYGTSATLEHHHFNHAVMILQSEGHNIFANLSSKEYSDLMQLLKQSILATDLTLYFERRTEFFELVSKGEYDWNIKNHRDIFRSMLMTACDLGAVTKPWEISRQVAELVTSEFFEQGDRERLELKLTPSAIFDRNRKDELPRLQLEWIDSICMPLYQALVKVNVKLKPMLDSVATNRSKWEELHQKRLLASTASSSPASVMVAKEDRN
Description: as §1, §2

[4] = Brain uptake (integration plot method, PS) and PDE10 binding occupancy in the brain; assay type: in vivo; details: rat, 1 mg/kg, i.v.
Description: Different from other tissue, the brain has the blood brain barrier (BBB) to restrict and regulate the movement of molecules between the blood and the brain. BBB consists of brain capillary endothelial cells. The brain capillary endothelial cells are connected through tight junction, and nutrients and drugs in the blood are required to pass transcellularly through the brain capillary endothelial cells. As a mechanism for the drugs to pass through the BBB, there are mentioned the following five routes; 1) passive diffusion, 2) carrier-mediated transport, 3) receptor-mediated transcytosis, 4) absorptive-mediated transcytosis and 5) active efflux transport by P-glycoprotein. The rate of the compound to pass through the BBB and enter the brain (PS) via one or plurals of these mechanisms can be measured by known in vivo experimental assays such as in situ brain perfusion, integration plot method, etc., or by the known in vitro experimental assays such as primary cultured brain capillary endothelial cells, or an established immortalized brain capillary endothelial cell line, etc. […]
Further, Compound A (1 mg/kg, i.v.) was intravenously administered to rat, and according to integration plot method, a rate (PS) was measured for Compound A to enter the brain by passing through the blood brain barrier (BBB), and occupancy of PDE10 binding in the brain was analyzed.

T1 sequence (Q13946 1-456 isoform Q13946-2): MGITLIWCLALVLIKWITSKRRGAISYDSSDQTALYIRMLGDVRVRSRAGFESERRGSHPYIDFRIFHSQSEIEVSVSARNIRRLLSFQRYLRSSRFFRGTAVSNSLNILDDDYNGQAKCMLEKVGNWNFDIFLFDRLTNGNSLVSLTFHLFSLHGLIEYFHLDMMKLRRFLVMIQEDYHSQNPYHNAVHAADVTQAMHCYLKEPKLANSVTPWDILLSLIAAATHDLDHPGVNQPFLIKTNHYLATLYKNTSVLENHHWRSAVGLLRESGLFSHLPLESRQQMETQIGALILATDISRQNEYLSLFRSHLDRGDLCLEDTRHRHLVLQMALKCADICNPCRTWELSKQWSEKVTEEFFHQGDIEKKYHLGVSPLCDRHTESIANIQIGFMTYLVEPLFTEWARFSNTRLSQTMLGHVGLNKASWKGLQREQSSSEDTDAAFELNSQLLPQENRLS

pIC50 [1]: < 6.00 | pIC50 [2]: < 6.00 | pIC50 [3]: < 6.00
SMILES: COc1ccc(-c2cc(N3CCCC3)nc(/C=C/c3nc(-n4ccnc4)c4ccccc4n3)n2)cc1OC [Compound A, 2-{(E)-2-[4-(1-imidazolyl)-quinazolin-2-yl]}ethenyl-4-(3,4-dimethoxy)phenyl-6-(pyrrolidin-1-yl)pyrimidine]
occupancy of PDE10 binding in the brain [4]: excellent PDE10 binding behaviors inside the brain | brain uptake and penetration (rate PS through the BBB) ([4]; integration plot method): good brain uptake and penetration characteristics
